Laboratory results taken from patent publication US11447466B2, “Substituted indole compounds useful as inhibitors of TLR7/8/9” (BRISTOL-MYERS SQUIBB COMPANY, priority 2017, dated 2022).
pIC50: −log10 of the molar value.

What was measured:
Format in all cases: cell-based
human TLR8 = target: T1, human TLR8 (Homo sapiens, UniProt Q9NR97); experiment: TLR8 inhibition reporter assay (HEK-Blue SEAP reporter, R848 stimulation); conditions: HEK-Blue cells overexpressing human TLR8, SEAP reporter, R848 15.9 μM, 22 hour incubation
T1 construct: host or cells: HEK-Blue cells
T1 sequence (Q9NR97 27-1041): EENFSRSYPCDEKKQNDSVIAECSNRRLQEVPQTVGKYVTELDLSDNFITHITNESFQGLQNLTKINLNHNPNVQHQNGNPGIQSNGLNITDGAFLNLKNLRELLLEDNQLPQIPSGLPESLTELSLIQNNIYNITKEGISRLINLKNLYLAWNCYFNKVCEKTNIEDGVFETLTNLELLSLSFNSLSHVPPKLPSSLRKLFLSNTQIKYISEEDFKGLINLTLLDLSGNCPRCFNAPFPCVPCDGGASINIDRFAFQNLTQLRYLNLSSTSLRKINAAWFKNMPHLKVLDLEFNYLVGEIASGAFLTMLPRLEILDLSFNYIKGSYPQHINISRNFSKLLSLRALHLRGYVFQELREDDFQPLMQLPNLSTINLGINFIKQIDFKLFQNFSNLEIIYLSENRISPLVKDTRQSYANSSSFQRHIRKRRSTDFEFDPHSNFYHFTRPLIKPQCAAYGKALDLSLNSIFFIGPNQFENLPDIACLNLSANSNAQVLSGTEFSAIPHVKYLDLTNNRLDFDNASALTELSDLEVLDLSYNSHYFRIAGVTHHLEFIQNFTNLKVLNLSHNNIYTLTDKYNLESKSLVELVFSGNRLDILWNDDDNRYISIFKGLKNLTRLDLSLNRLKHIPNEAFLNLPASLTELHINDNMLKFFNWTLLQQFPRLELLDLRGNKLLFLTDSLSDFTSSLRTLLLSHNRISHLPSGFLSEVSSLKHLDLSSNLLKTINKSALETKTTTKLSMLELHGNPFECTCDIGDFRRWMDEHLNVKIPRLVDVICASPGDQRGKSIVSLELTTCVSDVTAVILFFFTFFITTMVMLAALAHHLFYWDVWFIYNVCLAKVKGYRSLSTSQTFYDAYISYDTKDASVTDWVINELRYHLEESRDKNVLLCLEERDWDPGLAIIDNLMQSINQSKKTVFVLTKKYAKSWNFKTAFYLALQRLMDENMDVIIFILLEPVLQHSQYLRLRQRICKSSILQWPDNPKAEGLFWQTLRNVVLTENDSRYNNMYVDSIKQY
Outline: (§1)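 Screening used HEK-Blue cells overexpressing one human TLR (7, 8 or 9) and an IFN-β minimal promoter–NF-κB/AP-1 SEAP construct. Stimulation lasted 22 h at 37 °C with receptor-specific agonist: gardiquimod, R848 or ODN2006 at 7.5 μM, 15.9 μM and 5 nM.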

human TLR7 = target: T2, human TLR7 (Homo sapiens, UniProt Q9NYK1); experiment: TLR7 inhibition reporter assay (HEK-Blue SEAP reporter, gardiquimod stimulation); conditions: HEK-Blue cells overexpressing human TLR7, SEAP reporter, gardiquimod 7.5 μM, 22 hour incubation
T2 construct: host or cells: HEK-Blue cells
T2 sequence (Q9NYK1 27-1049): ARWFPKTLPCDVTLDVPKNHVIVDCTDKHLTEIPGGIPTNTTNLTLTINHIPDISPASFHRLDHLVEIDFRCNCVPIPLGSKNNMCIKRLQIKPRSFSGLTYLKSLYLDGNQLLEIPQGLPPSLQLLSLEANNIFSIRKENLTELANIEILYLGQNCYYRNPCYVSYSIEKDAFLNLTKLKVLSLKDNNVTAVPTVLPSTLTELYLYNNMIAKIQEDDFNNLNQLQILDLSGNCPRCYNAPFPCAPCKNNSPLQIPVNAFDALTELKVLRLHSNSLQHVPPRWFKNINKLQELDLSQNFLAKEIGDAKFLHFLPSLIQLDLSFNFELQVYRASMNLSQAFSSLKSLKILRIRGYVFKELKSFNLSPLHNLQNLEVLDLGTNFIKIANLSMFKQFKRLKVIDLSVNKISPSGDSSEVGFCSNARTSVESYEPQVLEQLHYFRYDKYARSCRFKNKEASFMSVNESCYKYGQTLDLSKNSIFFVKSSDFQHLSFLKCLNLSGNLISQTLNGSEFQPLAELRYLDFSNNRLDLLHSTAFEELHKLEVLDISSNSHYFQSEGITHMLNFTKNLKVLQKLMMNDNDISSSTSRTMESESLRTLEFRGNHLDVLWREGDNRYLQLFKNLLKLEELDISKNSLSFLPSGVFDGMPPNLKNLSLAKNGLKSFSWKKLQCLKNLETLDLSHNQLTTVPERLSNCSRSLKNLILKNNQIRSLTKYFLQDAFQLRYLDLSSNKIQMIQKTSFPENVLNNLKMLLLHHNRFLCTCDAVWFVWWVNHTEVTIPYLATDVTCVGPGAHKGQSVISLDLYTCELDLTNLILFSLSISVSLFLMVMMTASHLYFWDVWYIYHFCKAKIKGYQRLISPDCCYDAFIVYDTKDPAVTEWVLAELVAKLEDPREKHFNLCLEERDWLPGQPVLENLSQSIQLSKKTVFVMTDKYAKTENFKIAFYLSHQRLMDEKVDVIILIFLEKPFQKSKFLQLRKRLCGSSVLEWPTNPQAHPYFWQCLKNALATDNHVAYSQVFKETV
Outline: as §1

human TLR9 = target: T3, human TLR9 (Homo sapiens, UniProt Q9NR96); experiment: TLR9 inhibition reporter assay (HEK-Blue SEAP reporter, ODN2006 stimulation); conditions: HEK-Blue cells overexpressing human TLR9, SEAP reporter, ODN2006 5 nM, 22 hour incubation
T3 construct: host or cells: HEK-Blue cells
T3 sequence (Q9NR96 26-1032): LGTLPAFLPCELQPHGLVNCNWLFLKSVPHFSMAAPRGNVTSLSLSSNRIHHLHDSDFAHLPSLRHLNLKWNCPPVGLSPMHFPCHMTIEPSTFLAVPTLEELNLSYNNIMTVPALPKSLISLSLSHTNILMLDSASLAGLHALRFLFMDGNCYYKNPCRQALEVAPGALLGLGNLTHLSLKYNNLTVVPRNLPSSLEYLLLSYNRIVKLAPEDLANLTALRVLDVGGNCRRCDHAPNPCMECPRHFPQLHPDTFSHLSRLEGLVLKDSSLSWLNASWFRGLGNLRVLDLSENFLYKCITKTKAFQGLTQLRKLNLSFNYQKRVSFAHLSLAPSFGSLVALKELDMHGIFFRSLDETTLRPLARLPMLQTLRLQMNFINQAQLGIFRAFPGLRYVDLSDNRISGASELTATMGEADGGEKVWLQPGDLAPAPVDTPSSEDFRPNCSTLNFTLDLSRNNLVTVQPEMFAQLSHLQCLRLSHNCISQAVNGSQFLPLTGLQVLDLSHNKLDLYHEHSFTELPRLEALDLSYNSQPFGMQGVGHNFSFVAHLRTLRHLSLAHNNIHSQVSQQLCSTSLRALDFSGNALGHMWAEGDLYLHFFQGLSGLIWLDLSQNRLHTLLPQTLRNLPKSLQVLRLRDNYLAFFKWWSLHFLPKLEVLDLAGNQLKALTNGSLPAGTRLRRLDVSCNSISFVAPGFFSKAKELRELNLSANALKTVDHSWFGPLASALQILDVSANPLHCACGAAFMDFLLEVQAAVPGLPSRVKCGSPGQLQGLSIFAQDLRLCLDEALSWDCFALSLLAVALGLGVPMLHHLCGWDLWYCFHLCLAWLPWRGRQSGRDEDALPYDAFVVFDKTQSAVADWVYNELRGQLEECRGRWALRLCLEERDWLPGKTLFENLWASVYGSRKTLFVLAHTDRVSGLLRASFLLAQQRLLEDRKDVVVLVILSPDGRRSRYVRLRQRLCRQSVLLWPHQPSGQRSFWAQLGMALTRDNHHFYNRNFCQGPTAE
Outline: as §1

SMILES | pIC50 (human TLR8) | pIC50 (human TLR7) | pIC50 (human TLR9)
CC(C)c1c(-c2cn(C)c(=O)n(C)c2=O)[nH]c2ccc(C3CCNCC3)cc12 [Example 21, 5-(3-isopropyl-5-(piperidin-4-yl)-1H-indol-2-yl)-1,3-dimethylpyrimidine-2,4(1H,3H)-dione] | 6.58 | 6.98 | 5.18
Cc1cc(-c2[nH]c3ccc(C4CCN(C5CCOC5)CC4)cc3c2C(C)C)cn(C)c1=O (stereo not drawn) [Example 180, 5-(3-isopropyl-5-(1-(tetrahydrofuran-3-yl)piperidin-4-yl)-1H-indol-2-yl)-1,3-dimethylpyridin-2(1H)-one] | 8.09 | 8.15 | 5.24
COCc1cc(-c2[nH]c3ccc(C4CCN(CC(=O)N(C)C)CC4)cc3c2C(C)C)cn(C)c1=O [Example 351, 2-(4-(3-isopropyl-2-(5-(methoxymethyl)-1-methyl-6-oxo-1,6-dihydropyridin-3-yl)-1H-indol-5-yl)piperidin-1-yl)-N,N-dimethylacetamide] | 6.87 | 7.11 | 4.92
Cc1c(-c2[nH]c3ccc(C4CCN(C(CCO)CCO)CC4)cc3c2C(C)C)cn(C)c(=O)c1Cl [Example 243, 3-chloro-5-(5-(1-(1,5-dihydroxypentan-3-yl)piperidin-4-yl)-3-isopropyl-1H-indol-2-yl)-1,4-dimethylpyridin-2(1H)-one] | 8.04 | 8.85 | 5.75
Cc1c(-c2[nH]c3ccc(C4CCN(CC(=O)N(C)C)CC4)c(F)c3c2C(C)C)cn(C)c(=O)c1Cl [Example 158, 2-(4-(2-(5-chloro-1,4-dimethyl-6-oxo-1,6-dihydropyridin-3-yl)-4-fluoro-3-isopropyl-1H-indol-5-yl)piperidin-1-yl)-N,N-dimethylacetamide] | 8.59 | 8.18 | 5.45
Cc1cc(-c2[nH]c3ccc(C4CCN(CC(=O)N(C)C)CC4)cc3c2C(C)C)cn(C)c1=O [Example 71, 2-(4-(2-(1,5-dimethyl-6-oxo-1,6-dihydropyridin-3-yl)-3-isopropyl-1H-indol-5-yl)piperidin-1-yl)-N,N-dimethylacetamide] | 8.29 | 8.55 | 4.96
Cc1c(-c2[nH]c3ccc(C4CCN(CC(C)(C)O)CC4)c(F)c3c2C(C)C)cn(C)c(=O)c1Cl [Example 327, 3-chloro-5-(4-fluoro-5-(1-(2-hydroxy-2-methylpropyl)piperidin-4-yl)-3-isopropyl-1H-indol-2-yl)-1,4-dimethylpyridin-2(1H)-one] | 8.80 | 8.22 | 5.48
Cc1cc(-c2[nH]c3ccc(C4CCN(C5CCC(C(C)(C)O)CC5)CC4)cc3c2C(C)C)cn(C)c1=O (stereo not drawn) [Example 270, 5-(5-(1-(4-(2-hydroxypropan-2-yl)cyclohexyl)piperidin-4-yl)-3-isopropyl-1H-indol-2-yl)-1,3-dimethylpyridin-2(1H)-one] | 8.33 | 8.68 | 5.38
Cc1c(-c2[nH]c3ccc(C4CCN(C(C)C(N)=O)CC4)cc3c2C(C)C)cn(C)c(=O)c1Cl (stereo not drawn) [Example 156, 2-(4-(2-(5-chloro-1,4-dimethyl-6-oxo-1,6-dihydropyridin-3-yl)-3-isopropyl-1H-indol-5-yl)piperidin-1-yl)propanamide] | 8.13 | 8.37 | 4.93
CC(=O)N1CCC(c2ccc3[nH]c(-c4cn(C)c(=O)c(Cl)c4C)c(C(C)C)c3c2)CC1 [Example 241, 5-(5-(1-acetylpiperidin-4-yl)-3-isopropyl-1H-indol-2-yl)-3-chloro-1,4-dimethylpyridin-2(1H)-one] | 8.32 | 8.08 | 5.31
Cc1cc(-c2[nH]c3ccc(C4CCN(C5CCCOC5)CC4)cc3c2C(C)C)nn(C)c1=O (stereo not drawn) [Example 188, 6-(3-isopropyl-5-(1-(tetrahydro-2H-pyran-3-yl)piperidin-4-yl)-1H-indol-2-yl)-2,4-dimethylpyridazin-3(2H)-one] | 7.95 | 7.85 | 6.28
Cc1cc(-c2[nH]c3ccc(C4CCNCC4)cc3c2C(C)C)c(C)n(C)c1=O [Example 3, 5-(3-isopropyl-5-(piperidin-4-yl)-1H-indol-2-yl)-1,3,6-trimethylpyridin-2(1H)-one] | 8.47 | 8.08 | 6.01
Cc1c(-c2[nH]c3ccc(C4CCNCC4)cc3c2C(C)C)cc(Cl)c(=O)n1C [Example 33, 3-chloro-5-(3-isopropyl-5-(piperidin-4-yl)-1H-indol-2-yl)-1,6-dimethylpyridin-2(1H)-one] | 7.90 | 7.79 | 6.04
COCCOCCN1CCC(c2ccc3[nH]c(-c4cn(C)c(=O)c(Cl)c4C)c(C(C)C)c3c2)CC1 [Example 101, 3-chloro-5-(3-isopropyl-5-(1-(2-(2-methoxyethoxy)ethyl)piperidin-4-yl)-1H-indol-2-yl)-1,4-dimethylpyridin-2(1H)-one] | 8.03 | 7.89 | 5.31
